From paper PMC5267425, “Identification of small molecule modulators of HIV-1 Tat and Rev protein accumulation” (Retrovirology, 2017)

Assays:
in vitro = type: cell-based; conditions: human
Description: To assess the activity of compounds against HIV-1 strains having resistance to various ART drugs, assays were performed in the context of CEM-GXR cells. These cells express CD4, CXCR4, and coreceptor, CCR5 as well as an exogenous Tat-driven LTR-GFP expression cassette. Cultures were infected with different HIV-1 strains of interest, differing on their subtypes (A and B), and resistance to three major drug targets (reverse transcriptase, protease, and integrase). The culture contains serial dilutions of the molecule in the final concentrations from 0.156 to 5 μM for 833; 725 nM to 46.87 μM for 791; 1.95 to 62.5 μM for 892. Antiviral activity was evaluated in the assay by measuring inhibition of HIV-1 spread in a coculture of CEM-GXR cells containing 1% of HIV-1 infected (GFP positive) cells using flow cytometric analysis (GuavaSoft 2.2 software, Guava HT8, Millipore). To estimate the viable cell counts, the gate in a flow cytometer (Guava HT8) was set to cover 95% of the freshly passaged uninfected CEM-GXR cell or using ViaCount™. The same parameter was employed to gate viable cells in the inhibition assay and the number of gated cells was obtained by GuavaSoft 2.2 software. For assays using ViaCount™, sample acquisition and data analysis were performed with the selection of EasyFit analysis feature using the ViaCount™ software module.
Additional file 1: Figure S1. […] Cell viability was measured by an XTT assay. […] Cells were analyzed after 24 h incubation with the compounds at the indicated concentrations ranging between 0–47 μM (791), 0–5 μM (833), or 0–62.5 μM (892). Results are expressed as the percentage (%) of viable cells relative to DMSO treatment ±SEM of two independent experiments performed in triplicate. […] Images are cropped to show a representative field of view. b The dose range of the compounds which inhibit HIV-1 GagGFP expression in HeLa rtTA HIVGagGFP C7 cells was measured by mean fluorescence intensity and expressed relative to fluorescence intensity in DMSO-treated samples (N ≥ 3, *p ≤ 0.05, **p ≤ 0.01, and ***p ≤ 0.001). […]

HIV-1 MS RNA isoforms = assay: RT-PCR of splice site usage within HIV-1 MS RNA; type: cell-based; conditions: for decrease in levels of Rev1/2 and Nef RNAs relative to DMSO / increase of Tat1 and Tat2 RNAs relative to DMSO: 833 2 µM, 892 15 µM
Description: The effect of compound treatment on splice site selection within the HIV-1 MS RNA class was analyzed by radioactive RT-PCR as described previously. Radioactive reaction products were resolved on 6% denaturing polyacrylamide gels (8 M Urea, 1xTBE) and detection using a Typhoon 9400 PhosphorImager (Amersham). Gel densitometry was performed using ImageJ software (NIH) to calculate mRNA levels of HIV-1 MS mRNA isoforms, measured as the density of an individual isoform divided by the total density of all visible viral RNA species in a sample.

Structure (SMILES): COc1ccc(C=NNC(=O)c2ccccc2O)cc1O [Compound 892, 2-hydroxy-N′-(3-hydroxy-4-methoxybenzylidene)benzohydrazide]
- CC50 at 24 h (in vitro): 60 µM
- decrease in levels of Rev1/2 and Nef RNAs relative to DMSO (HIV-1 MS RNA isoforms): ~ 30%
- increase of Tat1 and Tat2 RNAs relative to DMSO (HIV-1 MS RNA isoforms): < 10%

Structure (SMILES): O=C(NC(=S)NNC(=O)c1ccccc1O)c1ccc(-c2ccccc2)cc1 [Compound 833, N-([2-(2-hydroxybenzoyl)hydrazino]carbonothioyl}-4-biphenylcarboxamide]
- CC50 at 24 h (in vitro): > 5 µM
- decrease in levels of Rev1/2 and Nef RNAs relative to DMSO (HIV-1 MS RNA isoforms): ~ 30%
- increase of Tat1 and Tat2 RNAs relative to DMSO (HIV-1 MS RNA isoforms): < 10%

Structure (SMILES): Cc1cc(NCc2cccnc2)n2ncc(-c3ccc(Cl)cc3)c2n1 [Compound 791, 3-(4-chlorophenyl)-5-methyl-N-(3-pyridinylmethyl)pyrazolo[1,5-a]pyrimidin-7-amine]
- CC50 at 24 h (in vitro): 24 µM
- splice site usage within MS RNA relative to control (HIV-1 MS RNA isoforms; 30 µM, 24 h): No significant changes
